# Data as given in patent publication US20240285644A1, “ASSESSING AND TREATING PROSTATE CANCER” (Mayo Foundation for Medical Education and Research, priority 2021, published 2024).
# “Also recorded” adds a separate entry of the source.
# Experiments:
# [1] = tested on: LNCaP cells; assay: Quantitative colony forming assay, cell survival of antiandrogen-sensitive LNCaP cells; format: cell-based; details: for cell survival of LNCaP cells: increasing concentrations of recombinant human NRG-1, vehicle versus enzalutamide (3 μM)
# From the text: It was next examined whether NRG-1 polypeptides differentially affect antiandrogen-sensitive and resistant prostate cancer cells. Antiandrogen-sensitive LNCaP prostate cancer cells express androgen receptor, whereas antiandrogen-resistant Du145 and PC3 cells express very limited androgen receptor (FIG. 3A).
# The paradoxical toxic and salutary effects of NRG-1 polypeptides on antiandrogen-sensitive versus antiandrogen-resistant cells mirrors the outcomes in CSPC and CRPC patients, respectively.
# LNCaP cells were then transfected with control shRNA versus shRNA targeting HER3 (FIG. 8A). Knockdown of HER3 rescued LNCaP cells from NRG-1- and enzalutamide-induced cell death (FIG. 7D and FIG. 8B). Relatedly, knockdown of HER2—but not HER4—reduces or eliminates Du145 cell benefit from NRG-1 polypeptide treatment (FIG. 8C-8D). To further confirm that HER2/HER3 heterodimerization can mediate a pro-survival response to NRG-1 polypeptides in CRPC, LNCaP cells were treated with lapatinib that induces HER2/HER3 heterodimerization.
# [2] = tested on: NRG-1; assay: Blood levels of NRG-1 in patients with cancer before and during PARP inhibitor treatment; format: in vivo, human; details: two patients with cancer (001 niraparib, 002 olaparib), Day 0 versus Days 7, 14
# Protocol: Blood levels of NRG-1 of five patients with cancer were measured prior to and during treatment with PARP inhibitors.
smiles,measurement,setting,value
CNC(=O)c1ccc(N2C(=S)N(c3ccc(C#N)c(C(F)(F)F)c3)C(=O)C2(C)C)cc1F [enzalutamide],cell survival of LNCaP cells,[1],function in an additive manner
same,cell survival of LNCaP cells,[1]; listed as Enz,induced death of LNCaP cells in an additive fashion
CS(=O)(=O)CCNCc1ccc(-c2ccc3ncnc(Nc4ccc(OCc5cccc(F)c5)c(Cl)c4)c3c2)o1 [lapatinib],effect of pre-treatment on NRG-1- and antiandrogen-mediated death of LNCaP cells,"[1]; pre-treatment with lapatinib, then NRG-1 and enzalutamide",rescues LNCaP cells from antiandrogen enzalutamide and NRG-1; also recorded: abolished NRG-1- and antiandrogen-mediated cell death
NC(=O)c1cccc2cn(-c3ccc([C@@H]4CCCNC4)cc3)nc12 [niraparib],blood levels of NRG-1,[2],reduced over the course of treatment
O=C(c1cc(Cc2n[nH]c(=O)c3ccccc23)ccc1F)N1CCN(C(=O)C2CC2)CC1 [olaparib],blood levels of NRG-1,[2],reduced over the course of treatment
same,blood levels of NRG-1,[2]; listed as Olaparib,reduced
